These results are taken from patent publication US20260001928A1 (CORTERIA PHARMACEUTICALS, priority 2022, published 2026).

The target in one assay is T1, human CRF2a receptor (Homo sapiens, UniProt Q13324).
T1 construct: expressed in transfected cells; host or cells: TeloHEAC cells
T1 sequence (Q13324 1-411): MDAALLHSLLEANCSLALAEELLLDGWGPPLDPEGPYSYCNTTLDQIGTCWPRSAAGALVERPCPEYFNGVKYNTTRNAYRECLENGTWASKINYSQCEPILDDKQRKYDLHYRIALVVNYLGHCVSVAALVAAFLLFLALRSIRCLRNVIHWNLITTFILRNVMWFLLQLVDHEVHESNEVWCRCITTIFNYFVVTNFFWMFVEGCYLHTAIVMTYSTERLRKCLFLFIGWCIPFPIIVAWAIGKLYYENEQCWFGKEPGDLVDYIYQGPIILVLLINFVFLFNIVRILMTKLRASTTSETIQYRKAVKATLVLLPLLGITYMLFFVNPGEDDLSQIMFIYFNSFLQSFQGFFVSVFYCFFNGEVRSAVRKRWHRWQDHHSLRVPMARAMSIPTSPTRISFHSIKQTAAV
Description: Activity at human CRF2a receptor, cAMP functional assay in TeloHEAC cells. Type of assay: cell-based. The note with it: TeloHEAC cells stably expressing human CRF2a receptor, relative to urocortin 2 (100 nM = 100%). Here is the method:
Agonism of compounds for human corticotropin-releasing factor 2a (CRF2a receptor) was determined by a functional assay measuring cAMP modulation upon treatment of TeloHEAC cells stably expressing human CRF2a receptor. Compounds were dissolved at 0.5 mM in 100% DMSO and serially diluted (1:2) in 100% DMSO for 16 dilutions. 20 nL of each dilution was then transferred to 384-well assay plate using an acoustic droplet ejection instrument. 5 μL of compound buffer (1×HBSS; 20 mM HEPES,) were then added to each well. Prior to use, frozen cells were thawed quickly at 37° C. and washed (5 min at 900 rpm) with 20 mL cell buffer (1×HBSS; 20 mM HEPES). Cells were resuspended in cell buffer added with 2 mM IBMX and adjusted to a cell density of […]. 5 μL cells (final dell density: 10000 cells/well) were dispensed in the compound-containing 384-well assay plate and incubated for 30 minutes 37° C. The cAMP level in treated cells was determined using the Cisbio 62AM4PEC kit according to manufacturer's instruction. Finally, plates were incubated for 1 h at room temperature before measuring the fluorescence ratio between 665/620 nm. The percent activity value (E %) was calculated by setting 100 nM of urocortin 2 (UCN2) as 100%. The in vitro potency of the compounds was quantified by determining the concentrations that caused 50% activation of maximal response (EC50) relative to urocortin 2.

The target of another assay is T2, CFR1R receptor (Homo sapiens, UniProt P34998).
T2 construct: host or cells: CHO-K1 (clone 2)
T2 sequence (P34998 24-415): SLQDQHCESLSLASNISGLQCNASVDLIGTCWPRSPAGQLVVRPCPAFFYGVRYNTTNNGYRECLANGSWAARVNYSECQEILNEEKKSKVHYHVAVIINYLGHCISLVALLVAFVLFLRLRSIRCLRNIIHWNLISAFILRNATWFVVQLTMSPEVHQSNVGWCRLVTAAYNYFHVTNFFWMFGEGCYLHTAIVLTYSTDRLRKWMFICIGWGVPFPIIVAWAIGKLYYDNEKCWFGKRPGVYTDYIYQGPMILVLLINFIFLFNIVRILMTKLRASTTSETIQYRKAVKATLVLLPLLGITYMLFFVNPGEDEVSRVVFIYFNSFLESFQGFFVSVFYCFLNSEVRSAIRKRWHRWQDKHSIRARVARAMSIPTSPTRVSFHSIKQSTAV
Description: Activity at anti-target CFR1R receptor, cAMP assay in CRF1R-overexpression CHO-K1 cells. Type of assay: cell-based. The settings on record: 100% = Sauvagine at 100 nM; for EC50: cAMP. Put shortly: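 The method mirrors that used with TeloHAEC cells. Here, thawed clone 2 cells seeded at 4000 cells/well are tested, and 100 nM Sauvagine sets the top of the activation scale.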

*1 amine or outer side, *2 acyl side, *3 side chain or, on linkers, in order; H or OH if unused. Where a SMILES comes first, the peptide text is derived from it. Side-chain parts run from the residue outwards. [ ]: non-standard residue; d: D form. The star is where a group is joined. C18 diacid = O=C(O)CCCCCCCCCCCCCCCCC(=O)*; C16 diacid = O=C(O)CCCCCCCCCCCCCCC(=O)*; γGlu = O=C(O)[C@H](CCC(=O)[*:2])N[*:1]; NMeI = CC[C@H](C)[C@H](NC)C(=O)O; Pentanoyl = CCCCC(=O)*; Aib = CC(C)(N)C(=O)O; Propionyl = CCC(=O)*; Butyryl = CCCC(=O)* Bounds are passed on as bounds.

The compound `CCCCC(=O)N[C@H](C(=O)N[C@@H](CC(C)C)C(=O)N[C@@H](CO)C(=O)N[C@@H](CC(C)C)C(=O)N[C@@H](CC(=O)O)C(=O)N[C@@H](C(=O)N1CCC[C@H]1C(=O)N[C@H](C(=O)N[C@@H](CCCCN)C(=O)N[C@@H](CC(C)C)C(=O)N[C@@H](CCCCNC(=O)CC[C@H](NC(=O)CCCCCCCCCCCCCCC(=O)O)C(=O)O)C(=O)N[C@@H](CCC(N)=O)C(=O)NC(C)(C)C(=O)N[C@@H](CC(C)C)C(=O)N[C@@H](CC(C)C)C(=O)N[C@@H](CCCCN)C(=O)N[C@@H](CCC(N)=O)C(=O)N[C@@H](CCC(=O)O)C(=O)N[C@@H](CCCNC(=N)N)C(=O)N[C@@H](CCC(N)=O)C(=O)N[C@@H](CCCCN)C(=O)N[C@@H](CCCCN)C(=O)N[C@@H](CCC(N)=O)C(=O)N[C@@H](CCCNC(=N)N)C(=O)N[C@@H](CCC(=O)O)C(=O)N[C@@H](CCC(N)=O)C(=O)N[C@@H](C)C(=O)N[C@@H](CCC(=O)O)C(=O)N[C@@H](CCCCN)C(=O)N[C@@H](CC(N)=O)C(=O)N[C@H](C(=O)N[C@@H](CCC(N)=O)C(=O)N[C@H](C(=O)N[C@@H](CC(C)C)C(=O)N[C@@H](CCC(=O)O)C(=O)N[C@@H](CCC(N)=O)C(=O)N[C@H](C(N)=O)C(C)C)[C@@H](C)CC)C(C)C)[C@@H](C)CC)C(C)C)C(C)C` [compound 22] (Pentanoyl-VLSLD[dV]PIKLK([γGlu-C16 diacid])Q[Aib]LLKQERQKKQREQAEKNVQILEQV-NH2) registered an EC50 on human CRF2a receptor of 4.44 nM. For the same compound, at CFR1R receptor, the “Emax (% I)” value stood at 3 % I and the EC50 is above 250 nM.

Turning to `CC[C@H](C)[C@H](NC)C(=O)N[C@H](C(=O)N[C@@H](CC(C)C)C(=O)N[C@@H](CO)C(=O)N[C@@H](CC(C)C)C(=O)N[C@@H](CC(=O)O)C(=O)N[C@@H](C(=O)N1CCC[C@H]1C(=O)N[C@H](C(=O)N[C@@H](CCCCN)C(=O)N[C@@H](CC(C)C)C(=O)N[C@@H](CCCCNC(=O)CC[C@H](NC(=O)CCCCCCCCCCCCCCCCC(=O)O)C(=O)O)C(=O)N[C@@H](CCC(N)=O)C(=O)N[C@H](C(=O)N[C@@H](CC(C)C)C(=O)N[C@@H](CC(C)C)C(=O)N[C@@H](CCCCN)C(=O)N[C@@H](CCC(N)=O)C(=O)N[C@@H](CCC(=O)O)C(=O)N[C@@H](CCCNC(=N)N)C(=O)N[C@@H](CCC(N)=O)C(=O)N[C@@H](CCCCN)C(=O)N[C@@H](CCCCN)C(=O)N[C@@H](CCC(N)=O)C(=O)N[C@@H](CCCNC(=N)N)C(=O)N[C@@H](CCC(=O)O)C(=O)N[C@@H](CCC(N)=O)C(=O)N[C@@H](C)C(=O)N[C@@H](CCC(=O)O)C(=O)N[C@@H](CCCCN)C(=O)N[C@@H](CC(N)=O)C(=O)NC(C)(C)C(=O)N[C@@H](CCC(N)=O)C(=O)N[C@H](C(=O)N[C@@H](CC(C)C)C(=O)N[C@@H](CCC(=O)O)C(=O)N[C@@H](CCC(N)=O)C(=O)N[C@H](C(N)=O)C(C)C)[C@@H](C)CC)[C@@H](C)CC)[C@@H](C)CC)C(C)C)C(C)C` [compound 23] (H-[NMeI]VLSLD[dV]PIKLK([γGlu-C18 diacid])QILLKQERQKKQREQAEKN[Aib]QILEQV-NH2), the concentration for a half-maximal effect (EC50) at human CRF2a receptor was 0.33 nM. For the same compound, at CFR1R receptor, the “Emax (% I)” value was found to be 35 % I and the EC50 is above 250 nM.

`CC[C@H](C)[C@H](NC)C(=O)N[C@H](C(=O)N[C@@H](CC(C)C)C(=O)N[C@@H](CO)C(=O)N[C@@H](CC(C)C)C(=O)N[C@@H](CC(=O)O)C(=O)N[C@@H](C(=O)N1CCC[C@H]1C(=O)N[C@H](C(=O)N[C@@H](CCCCN)C(=O)N[C@@H](CC(C)C)C(=O)N[C@@H](CCCCNC(=O)CC[C@H](NC(=O)CCCCCCCCCCCCCCCCC(=O)O)C(=O)O)C(=O)N[C@@H](CCC(N)=O)C(=O)N[C@H](C(=O)N[C@@H](CC(C)C)C(=O)N[C@@H](CC(C)C)C(=O)N[C@@H](CCCCN)C(=O)N[C@@H](CCC(N)=O)C(=O)N[C@@H](CCC(=O)O)C(=O)N[C@@H](CCCNC(=N)N)C(=O)N[C@@H](CCC(N)=O)C(=O)N[C@@H](CCCCN)C(=O)N[C@@H](CCCCN)C(=O)N[C@@H](CCC(N)=O)C(=O)N[C@@H](CCCNC(=N)N)C(=O)N[C@@H](CCC(=O)O)C(=O)N[C@@H](CCC(N)=O)C(=O)N[C@@H](C)C(=O)N[C@@H](CCC(=O)O)C(=O)N[C@@H](CCCCN)C(=O)N[C@@H](CC(N)=O)C(=O)N[C@@H](C)C(=O)N[C@@H](CCC(N)=O)C(=O)N[C@H](C(=O)N[C@@H](CC(C)C)C(=O)N[C@@H](CCC(=O)O)C(=O)N[C@@H](CCC(N)=O)C(=O)N[C@H](C(N)=O)C(C)C)[C@@H](C)CC)[C@@H](C)CC)[C@@H](C)CC)C(C)C)C(C)C` [compound 24] (H-[NMeI]VLSLD[dV]PIKLK([γGlu-C18 diacid])QILLKQERQKKQREQAEKNAQILEQV-NH2): the half-maximal effective concentration (EC50) at human CRF2a receptor was 0.04 nM. Besides, at CFR1R receptor, the “Emax (% I)” value came out at 37 % I and the EC50 was above 250 nM.

Consider `CCC(=O)N[C@H](C(=O)N[C@@H](CC(C)C)C(=O)N[C@@H](CO)C(=O)N[C@@H](CC(C)C)C(=O)N[C@@H](CC(=O)O)C(=O)N[C@@H](C(=O)N1CCC[C@H]1C(=O)N[C@H](C(=O)N[C@@H](CCCCN)C(=O)N[C@@H](CC(C)C)C(=O)N[C@@H](CCCCNC(=O)CC[C@H](NC(=O)CCCCCCCCCCCCCCC(=O)O)C(=O)O)C(=O)N[C@@H](CCCCN)C(=O)N[C@H](C(=O)N[C@@H](CC(C)C)C(=O)N[C@@H](CC(C)C)C(=O)N[C@@H](CCC(=O)O)C(=O)N[C@@H](CCC(N)=O)C(=O)N[C@@H](CCC(=O)O)C(=O)N[C@@H](CCCCN)C(=O)N[C@@H](CCC(N)=O)C(=O)N[C@@H](CCCCN)C(=O)N[C@@H](CCCCN)C(=O)N[C@@H](CCC(N)=O)C(=O)N[C@@H](CCCNC(=N)N)C(=O)N[C@@H](CCC(=O)O)C(=O)N[C@@H](CCC(N)=O)C(=O)N[C@@H](C)C(=O)N[C@@H](CCC(=O)O)C(=O)N[C@H](C(=O)N[C@@H](CC(N)=O)C(=O)N[C@@H](CCCCN)C(=O)N[C@@H](CCC(N)=O)C(=O)N[C@H](C(=O)N[C@@H](CC(C)C)C(=O)N[C@@H](C)C(=O)N[C@@H](CCC(N)=O)C(=O)N[C@H](C(N)=O)C(C)C)[C@@H](C)CC)[C@@H](C)O)[C@@H](C)CC)[C@@H](C)CC)C(C)C)C(C)C` [compound 35] (Propionyl-VLSLD[dV]PIKLK([γGlu-C16 diacid])KILLEQEKQKKQREQAETNKQILAQV-NH2), for which the half-maximal effective concentration (EC50) at human CRF2a receptor was determined as 0.23 nM. In addition, on CFR1R receptor, the “Emax (% I)” value is 13 % I and the EC50 was above 250 nM.

In turn, `CCCC(=O)N[C@H](C(=O)N[C@@H](CC(C)C)C(=O)N[C@@H](CO)C(=O)N[C@@H](CC(C)C)C(=O)N[C@@H](CC(=O)O)C(=O)N[C@@H](C(=O)N1CCC[C@H]1C(=O)N[C@H](C(=O)N[C@@H](CCCCN)C(=O)N[C@@H](CC(C)C)C(=O)N[C@@H](CCCCNC(=O)CC[C@H](NC(=O)CCCCCCCCCCCCCCC(=O)O)C(=O)O)C(=O)N[C@@H](CCCCN)C(=O)N[C@H](C(=O)N[C@@H](CC(C)C)C(=O)N[C@@H](CC(C)C)C(=O)N[C@@H](CCC(=O)O)C(=O)N[C@@H](CCC(N)=O)C(=O)N[C@@H](CCC(=O)O)C(=O)N[C@@H](CCCCN)C(=O)N[C@@H](CCC(N)=O)C(=O)N[C@@H](CCCCN)C(=O)N[C@@H](CCCCN)C(=O)N[C@@H](CCC(N)=O)C(=O)N[C@@H](CCCNC(=N)N)C(=O)N[C@@H](CCC(=O)O)C(=O)N[C@@H](CCC(N)=O)C(=O)N[C@@H](C)C(=O)N[C@@H](CCC(=O)O)C(=O)N[C@H](C(=O)N[C@@H](CC(N)=O)C(=O)N[C@@H](CCCCN)C(=O)N[C@@H](CCC(N)=O)C(=O)N[C@H](C(=O)N[C@@H](CC(C)C)C(=O)N[C@@H](C)C(=O)N[C@@H](CCC(N)=O)C(=O)N[C@H](C(N)=O)C(C)C)[C@@H](C)CC)[C@@H](C)O)[C@@H](C)CC)[C@@H](C)CC)C(C)C)C(C)C` [compound 36] (Butyryl-VLSLD[dV]PIKLK([γGlu-C16 diacid])KILLEQEKQKKQREQAETNKQILAQV-NH2) came in with an EC50 on human CRF2a receptor of 0.14 nM. Also, at CFR1R receptor, the “Emax (% I)” value was determined as 22 % I and the concentration giving a half-maximal response (EC50) is above 250 nM.
